The values that follow come from PubChem BioAssay AID1996.

Molecules are shown by their SMILES. Converted amounts (≈) assume the structure as drawn.

The conditions of the data set: buffer; pH 7.4; 200.0 µM.
In turn, `CC(=O)Oc1ccc(-c2ccc(C(=O)OCC(=O)c3c(N)n(C)c(=O)n(C)c3=O)cc2)cc1` registered a solubility (kinetic) of 3.2 µg/mL (≈ 7.09 µM).

As to `CCC(=O)N1CCN=C1SCc1c(F)cccc1Cl`, the solubility (kinetic) was 12.6 µg/mL (≈ 41.9 µM).

For `CN(CC(=O)c1c(N)n(C)c(=O)n(C)c1=O)c1ccccc1`, the kinetic solubility was over 45.3 µg/mL.

`Cn1nc(C(C)(C)C)c([N+](=O)[O-])c1C(=O)N1CCOCC1` came in with a solubility (kinetic) of over 44.4 µg/mL. As to `CC(=O)c1ccc(NC(=O)COC(=O)c2c[nH]c3ccccc23)cc1`, the solubility (kinetic) came out at 1.8 µg/mL (≈ 5.35 µM). Molecule `O=S(=O)(c1cccc2nsnc12)N1CCCCC1` showed a solubility (kinetic) of over 42.5 µg/mL. Under `Cc1ccc(C(=O)Nc2ccc3ccccc3n2)cc1` stands 2.3 µg/mL (≈ 8.77 µM); under `C[n+]1ccccc1/C=N/O.[Cl-]`, over 25.9 µg/mL. As for `O=C(CCCC(=O)c1ccccc1)Nc1ccc(O)cc1`, the figure is over 42.5 µg/mL. As for `CC(C)c1ccc(NC(=O)Nc2cnccn2)cc1`, the figure is 3.9 µg/mL (≈ 15.2 µM). In turn, `COc1ccc(OC)c(NC(=O)c2nc3ccccc3s2)c1` showed a kinetic solubility of under 0.3 µg/mL.

For `COc1ccc(S(=O)(=O)NCC(=O)NCCc2ccc(OC)c(OC)c2)cc1`, the solubility (kinetic) was over 61.3 µg/mL. As for `O=C(CN1CCN(Cc2ccc3c(c2)OCO3)CC1)Nc1ccc2[nH]c(=O)[nH]c2c1`, the figure is over 61.4 µg/mL; as for `O=C(Nc1ccc(F)cc1F)NC1CCN(Cc2c(F)cccc2Cl)CC1`, 5 µg/mL (≈ 12.6 µM); as for `CC1CC(Nc2ccccc2)c2ccccc2N1C(=O)c1ccco1` (stereo not given), 13.2 µg/mL (≈ 39.7 µM). As for `O=C1CC(=O)N(Cc2ccccc2)C(=S)N1`, the figure is over 35.1 µg/mL. As for `OCc1ccccc1N=Cc1cccnc1`, the figure is over 31.8 µg/mL. Take `Cc1ccc(S(=O)(=O)Nc2ccc(Oc3cccnc3)nc2)cc1`: the solubility (kinetic) turned out to be 16.8 µg/mL (≈ 49.2 µM). As for `CC(C)(C)Nc1nc(Cl)nc(Nc2ccccc2)n1`, the figure is 2.9 µg/mL (≈ 10.4 µM); as for `Cc1ccc(NC(=O)CCCc2c[nH]c3ccccc23)nc1`, 3.8 µg/mL (≈ 13 µM); as for `COC(CNC(=O)c1cccnc1)OC`, 26.4 µg/mL (≈ 126 µM).

On to `CN(C)S(=O)(=O)c1cccc(NC(=O)CCCC2CCCCC2)c1`, for which the kinetic solubility is 8.2 µg/mL (≈ 23.3 µM).

For the molecule `CC(=O)c1sc2nc(-c3ccco3)ccc2c1N`, the kinetic solubility turned out to be 6 µg/mL (≈ 23.2 µM).

Turning to `Cc1cc(Nc2ccccc2)cc(=O)n1C`, the kinetic solubility is 30.9 µg/mL (≈ 144 µM).

`CCCNC(=O)c1ccccc1NC(=O)C1=CSCCO1`: the kinetic solubility was over 46 µg/mL. As for `Cc1c(-c2nc(-c3cccnc3)no2)cccc1[N+](=O)[O-]`, the figure is 2 µg/mL (≈ 7.09 µM); as for `CC(=O)n1cc(C=C2C(=O)NC(=O)NC2=O)c2ccccc21`, 27.5 µg/mL (≈ 92.5 µM); as for `Cc1cc[n+](CC(=O)Nc2cccc(C)c2)cc1.[Cl-]`, over 41.5 µg/mL. As for `COc1cc(NS(=O)(=O)c2ccc(NC(=O)/C=C/C(=O)O)cc2)nc(OC)n1`, the figure is over 61.3 µg/mL; as for `COc1cc(C(=O)Nc2cccnc2)cc(OC)c1OC`, over 43.2 µg/mL. As for `COc1ccc(C(=O)/C=C/Nc2cc(C)ccn2)cc1`, the figure is 5.8 µg/mL (≈ 21.6 µM); as for `COc1ccc(N2CC(NC(=O)N3CCc4ccccc43)CC2=O)cc1OC` (stereo not given), over 57.2 µg/mL; as for `N#CC(C#N)=Cc1cccnc1`, 19.5 µg/mL (≈ 126 µM). `O=C(Nc1ccc2c(c1)OCO2)Nc1ccc(F)cc1F` gave a solubility (kinetic) of 0.9 µg/mL (≈ 3.08 µM). As for `O=C1C(C=Nc2ccc(F)cc2)=C(O)c2ccccc21`, the figure is under 0.6 µg/mL; as for `N#Cc1c(-c2ccccc2)cc(-c2ccccc2)[nH]c1=O`, 0.6 µg/mL (≈ 2.2 µM). `CSc1ccccc1C(=O)Nc1cccc([N+](=O)[O-])c1` had a solubility (kinetic) of 28.2 µg/mL (≈ 97.8 µM). With `O=C(CNC(=O)[C@@H]1Cc2ccccc2CN1)NC1CCCC1`, the solubility (kinetic) was over 45.2 µg/mL. Take `CN1CCN2c3ncccc3Cc3ccccc3[C@@H]2C1`: the kinetic solubility worked out at 30.2 µg/mL (≈ 114 µM). As for `CN(CC(=O)NCc1ccco1)CC(=O)Nc1ccc(F)c(F)c1F`, the figure is 45.2 µg/mL (≈ 127 µM); as for `CN(Cc1ccccc1)C(=O)COC(=O)Cc1ccc(Cl)cc1`, 46.3 µg/mL (≈ 140 µM); as for `Cc1ccc(CNS(=O)(=O)c2ccc(F)c(F)c2)n1C`, over 45 µg/mL. As for `CC(Sc1cccc[n+]1[O-])C(=O)NC1CCCCC1C` (stereo not given), the figure is over 44.2 µg/mL; as for `COc1ccc(C(=O)Nc2cccc3c2CCCC3)c(OC)c1`, under 0.7 µg/mL. Under `S=C(Nc1ccccc1Cl)N1CCC(c2ccccc2)C1` (stereo not given) stands 17.9 µg/mL (≈ 56.5 µM); under `COc1ccc(CNC(=O)CN(c2ccccc2OC)S(=O)(=O)c2cccs2)cc1`, 10.7 µg/mL (≈ 24 µM); under `O=C1CC(c2ccccc2F)c2c(c3ccccc3[nH]c2=O)O1` (stereo not given), 11.4 µg/mL (≈ 36.9 µM). Molecule `Cc1ccc(S(=O)(=O)N2CCOCC2)s1` gave a kinetic solubility of over 37.1 µg/mL. As for `COc1cccc(NC(=S)N(CCC(C)C)C(C)c2ccncc2)c1` (stereo not given), the figure is 44.4 µg/mL (≈ 124 µM); as for `COC(=O)c1sccc1NC(=O)Nc1ccc(OC)c(OC)c1`, over 50.5 µg/mL. Under `Oc1ccc(Br)cc1CNc1ccccn1` stands 3.4 µg/mL (≈ 12.2 µM).

Molecule `CCN1C(=O)NC(c2ccc(Cl)cc2)C2=C1CCCC2=O` (stereo not given) registered a kinetic solubility of 44.2 µg/mL (≈ 145 µM). Under `Cc1ccc2c(c1)C(=C(C#N)C#N)C(=O)N2CCN1CCOCC1` stands 48.3 µg/mL (≈ 150 µM); under `COC(=O)[C@H](CC(C)C)NC(=O)N1CCC(C)CC1`, over 40.6 µg/mL; under `CCN1CCN(C(=O)/C=C/c2ccc(OC)c(OC)c2)CC1`, over 45.7 µg/mL. Under `CC(=O)Oc1ccc(NC(=O)Cc2ccccc2)c(C(=O)O)c1` stands over 47 µg/mL.

Molecule `CNC(=S)N1CCc2sccc2C1C` (stereo not given) had a solubility (kinetic) of over 34 µg/mL. Under `CCCc1cc(=O)[nH]c(SCC(=O)N2CCCCCC2)n1` stands over 46.4 µg/mL; under `CN(C)c1ccc(C(=O)N2CCNC(=O)C2CC(=O)Nc2ccc(F)cc2)cc1` (stereo not given), 55.1 µg/mL (≈ 138 µM); under `COc1ccc(Nc2nc(-c3ccncc3)nc3ccccc23)cc1`, 0.6 µg/mL (≈ 1.83 µM). As for `COc1ccc(C(=O)OCC(=O)c2c(N)n(C)c(=O)n(C)c2=O)c(OC)c1OC`, the figure is over 61.1 µg/mL; as for `COc1cccc(OC)c1OCCN1CCCC1`, 32.4 µg/mL (≈ 129 µM); as for `CCCCN(CC)C(=O)c1cc2c(=O)[nH]c3ccc(C)cc3c2s1`, 0.5 µg/mL (≈ 1.46 µM). The molecule `Clc1ccc(-c2csc(-c3ccno3)n2)cc1` came in with a solubility (kinetic) of under 0.3 µg/mL. As for `COc1ccc2nc(NC(=O)c3ccccc3[N+](=O)[O-])sc2c1`, the figure is 3 µg/mL (≈ 9.11 µM); as for `COc1cc(OC)cc(C(=O)Nc2cc(C)on2)c1`, 9.7 µg/mL (≈ 37 µM); as for `CSc1ccccc1NC(=O)COC(=O)c1ccccc1O`, 2 µg/mL (≈ 6.3 µM). Under `Cc1cc(C(=O)COc2ccc([N+](=O)[O-])cc2)c(C)n1C1CC1` stands 2.2 µg/mL (≈ 7 µM); under `NC(=O)COC(=O)/C=C/c1ccccc1[N+](=O)[O-]`, 33.1 µg/mL (≈ 132 µM); under `CCOc1ccc(C(=O)OCC(=O)N2CCCC2)cc1OCC`, 38.3 µg/mL (≈ 119 µM). For the molecule `COc1ccc(-n2cnnc2SCC(=O)NC2CCCCC2)cc1`, the kinetic solubility is over 52 µg/mL. As for `COc1ccc(NC2=CC(=O)CC(C)(C)C2)cc1`, the figure is over 36.8 µg/mL; as for `Cc1ccc2nc(-c3ccc(NC(=O)COCC(=O)O)cc3)sc2c1`, over 53.5 µg/mL.

With `Cc1c(N)c(C)c([N+](=O)[O-])c(C)c1[N+](=O)[O-]`, the solubility (kinetic) stood at 6.9 µg/mL (≈ 30.6 µM). For `CC(C)(C)c1ccc(CN2C(=O)c3ccccc3S2(=O)=O)cc1`, the solubility (kinetic) was 1.2 µg/mL (≈ 3.64 µM).

Regarding `CCCCCCCCCCCCN1C(=O)CSC1c1cccnc1` (stereo not given), the solubility (kinetic) was under 0.4 µg/mL. As for `Cn1ccnc1C(OC(=O)c1ccc(Cl)cc1)C(F)(F)F` (stereo not given), the figure is over 47.8 µg/mL. Under `CC(OC(=O)/C(C#N)=C/c1ccco1)C(=O)N(C)c1ccccc1` (stereo not given) stands 47.8 µg/mL (≈ 147 µM); under `Cc1cccc(NC(=S)Nc2cccc3ccccc23)c1`, 3.8 µg/mL (≈ 13 µM). Under `O=C(O)c1ccc(S(=O)(=O)NCC2CCCCC2)cc1` stands over 44.6 µg/mL; under `COc1ccc2c(CC(=O)Nc3ccc(N4CCOCC4)cc3)coc2c1`, 5.4 µg/mL (≈ 14.7 µM); under `CCCCCC#CCN1CCN(C23CC4CC(CC(C4)C2)C3)CC1`, 42.8 µg/mL (≈ 130 µM). Take `CCOC(=O)Cc1csc(NC(=O)c2cc3ccccc3o2)n1`: the kinetic solubility was 10.4 µg/mL (≈ 31.5 µM). `CC1=C(C(=O)OCC2CCCCC2)C(c2ccc(O)cc2)NC(=O)N1` (stereo not given) yielded a solubility (kinetic) of 3.4 µg/mL (≈ 9.87 µM). As for `Cc1noc(C)c1COc1cccc(C(=O)Nc2ccc(Br)cc2F)c1`, the figure is 9.6 µg/mL (≈ 22.9 µM); as for `O=C(NC1CCSc2ccccc21)c1ccccc1Cl` (stereo not given), 9.3 µg/mL (≈ 30.6 µM).

The molecule `Cc1ccc(C(=O)NC(C)c2ccc(-n3ccnc3)cc2)o1` (stereo not given) showed a solubility (kinetic) of 40.8 µg/mL (≈ 138 µM).

With `COc1ccc(OC)c(CN2CCN(C(=O)CNC(=O)c3ccccc3F)CC2)c1`, the kinetic solubility was found to be 59.9 µg/mL (≈ 144 µM).

Molecule `COC(=O)c1sccc1-n1cc(C#N)c(=O)n(C)c1=O` gave a solubility (kinetic) of over 43.7 µg/mL.

`CCN(CC)c1nc(C)nc2c1sc(=S)n2C`: the solubility (kinetic) amounted to 0.6 µg/mL (≈ 2.24 µM).

The molecule `O=C(/C=C\c1ccccc1)Oc1cccc2cccnc12` showed a kinetic solubility of 17.3 µg/mL (≈ 62.8 µM). As for `CC(=O)NCCc1cnc[nH]1`, the figure is over 23 µg/mL; as for `CCCC1c2ccsc2CCN1C(=S)NC` (stereo not given), 29.8 µg/mL (≈ 117 µM). `COc1ccc(OCC(O)CNC(=O)c2cccs2)cc1` (stereo not given): the solubility (kinetic) turned out to be 36.9 µg/mL (≈ 120 µM). Molecule `O=C(COC(=O)c1ccc(Br)o1)NCc1ccc2c(c1)OCO2` had a kinetic solubility of 29.9 µg/mL (≈ 78.2 µM). As for `COc1ccccc1NC(=O)CN1CCSc2ccccc21`, the figure is 3.1 µg/mL (≈ 9.86 µM); as for `Cc1nc(SCC(=O)N2CCOCC2)c2c(C)c(C)sc2n1`, 49.1 µg/mL (≈ 145 µM); as for `Cc1ccc2[nH]cc(CCNC(=O)c3cccs3)c2c1`, over 42.7 µg/mL.

On to `Cc1cccc(Cn2c(-c3ccc[nH]c3=O)nc3ccccc32)c1`, for which the kinetic solubility amounted to 36.7 µg/mL (≈ 116 µM). As for `Cc1ccc(C)c(NC(=O)C2CCN(C(=O)c3cccs3)CC2)c1`, the figure is over 51.4 µg/mL. Under `Cc1ccccc1NC(=S)N1CCN(c2ccccc2)CC1` stands 0.6 µg/mL (≈ 1.93 µM); under `COCCCNC1=C(Cl)C(=O)c2ccccc2C1=O`, 35.5 µg/mL (≈ 127 µM); under `Cc1ccc(C)c(NC(=O)CSc2nnc(-c3ccncc3)o2)c1`, over 51.1 µg/mL. As for `CN1CCN(C(=O)c2ccc(F)c(F)c2)CC1`, the figure is over 36 µg/mL; as for `CCN(CC)CCCNCC(=O)Nc1ccc2c(c1)CCC2`, 24.3 µg/mL (≈ 80.1 µM).
